The values that follow come from patent publication US9409868B2, “Inhibitors of rho associated protein kinases (ROCK) and methods of use” (H. LEE MOFFITT CANCER CENTER AND RESEARCH INSTITUTE, INC., priority 2012, dated 2016).

Like-named read-outs stand apart in the source and are kept apart here.

The target of test [1] is ROCK1 (Homo sapiens (Human), UniProt Q13464). Put plainly: Z-Lyte FRET kinase assay, ROCK1. It is filed as biochemical. The note with it: triplicate experiments. From the text: (§1) Kinase Assay. A robust FRET-based, enzyme-coupled assay format, Z-Lyte® Kinase Assay Ser/[…] Peptide Kit (Invitrogen, cat. PV3793), was employed in this study to monitor inhibition of ROCK1 (Invitrogen, cat. PV3691) and ROCK2 (Invitrogen, cat. PV3759) enzyme activities. […] The substrate contains both coumarin and fluorescein and only uncleaved […] substrate will undergo FRET. […] A known inhibitor, Y-27632 (Tocris Bioscience, cat. 1254), is used as a control compound.
Sequence of ROCK1 (Q13464 whole entry): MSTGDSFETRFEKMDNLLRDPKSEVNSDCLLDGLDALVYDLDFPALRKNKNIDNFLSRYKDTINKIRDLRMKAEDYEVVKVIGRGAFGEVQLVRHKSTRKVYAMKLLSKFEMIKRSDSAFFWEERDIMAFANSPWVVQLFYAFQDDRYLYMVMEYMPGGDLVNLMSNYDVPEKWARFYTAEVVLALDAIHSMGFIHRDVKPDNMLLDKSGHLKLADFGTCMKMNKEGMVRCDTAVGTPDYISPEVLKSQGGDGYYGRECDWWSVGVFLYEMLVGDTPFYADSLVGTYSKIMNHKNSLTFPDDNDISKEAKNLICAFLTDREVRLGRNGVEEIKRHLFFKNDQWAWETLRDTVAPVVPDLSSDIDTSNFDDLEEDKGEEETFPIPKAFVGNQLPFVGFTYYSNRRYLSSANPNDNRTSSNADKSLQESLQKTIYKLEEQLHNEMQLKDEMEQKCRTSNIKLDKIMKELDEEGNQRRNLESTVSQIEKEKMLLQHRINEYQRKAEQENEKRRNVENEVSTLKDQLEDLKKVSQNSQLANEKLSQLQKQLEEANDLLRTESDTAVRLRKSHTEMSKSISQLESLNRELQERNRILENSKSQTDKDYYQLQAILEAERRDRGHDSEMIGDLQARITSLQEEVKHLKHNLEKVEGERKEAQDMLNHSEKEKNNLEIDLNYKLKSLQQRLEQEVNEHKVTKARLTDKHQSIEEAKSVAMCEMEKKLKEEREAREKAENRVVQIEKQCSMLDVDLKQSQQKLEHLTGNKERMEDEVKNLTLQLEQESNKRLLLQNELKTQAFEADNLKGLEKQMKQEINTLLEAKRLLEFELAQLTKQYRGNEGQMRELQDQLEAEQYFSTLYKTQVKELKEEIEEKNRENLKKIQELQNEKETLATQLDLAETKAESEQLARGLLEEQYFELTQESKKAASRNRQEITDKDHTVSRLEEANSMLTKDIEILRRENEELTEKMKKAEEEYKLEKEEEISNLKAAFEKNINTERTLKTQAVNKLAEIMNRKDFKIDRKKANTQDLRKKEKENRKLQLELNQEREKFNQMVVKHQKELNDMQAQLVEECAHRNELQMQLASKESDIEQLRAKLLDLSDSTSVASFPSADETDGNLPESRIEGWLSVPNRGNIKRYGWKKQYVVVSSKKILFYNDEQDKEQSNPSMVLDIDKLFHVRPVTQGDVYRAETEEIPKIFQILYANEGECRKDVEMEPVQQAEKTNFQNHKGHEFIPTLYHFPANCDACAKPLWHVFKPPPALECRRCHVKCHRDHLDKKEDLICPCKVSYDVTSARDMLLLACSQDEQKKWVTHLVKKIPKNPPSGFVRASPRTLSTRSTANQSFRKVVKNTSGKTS

For test [2], the target named is T1, ROCK2 (Homo sapiens (Human), UniProt O75116). Put plainly: Z-Lyte FRET kinase assay, ROCK2. It is filed as biochemical. The note with it: triplicate experiments.
T1 sequence (O75116 whole entry, species assumed): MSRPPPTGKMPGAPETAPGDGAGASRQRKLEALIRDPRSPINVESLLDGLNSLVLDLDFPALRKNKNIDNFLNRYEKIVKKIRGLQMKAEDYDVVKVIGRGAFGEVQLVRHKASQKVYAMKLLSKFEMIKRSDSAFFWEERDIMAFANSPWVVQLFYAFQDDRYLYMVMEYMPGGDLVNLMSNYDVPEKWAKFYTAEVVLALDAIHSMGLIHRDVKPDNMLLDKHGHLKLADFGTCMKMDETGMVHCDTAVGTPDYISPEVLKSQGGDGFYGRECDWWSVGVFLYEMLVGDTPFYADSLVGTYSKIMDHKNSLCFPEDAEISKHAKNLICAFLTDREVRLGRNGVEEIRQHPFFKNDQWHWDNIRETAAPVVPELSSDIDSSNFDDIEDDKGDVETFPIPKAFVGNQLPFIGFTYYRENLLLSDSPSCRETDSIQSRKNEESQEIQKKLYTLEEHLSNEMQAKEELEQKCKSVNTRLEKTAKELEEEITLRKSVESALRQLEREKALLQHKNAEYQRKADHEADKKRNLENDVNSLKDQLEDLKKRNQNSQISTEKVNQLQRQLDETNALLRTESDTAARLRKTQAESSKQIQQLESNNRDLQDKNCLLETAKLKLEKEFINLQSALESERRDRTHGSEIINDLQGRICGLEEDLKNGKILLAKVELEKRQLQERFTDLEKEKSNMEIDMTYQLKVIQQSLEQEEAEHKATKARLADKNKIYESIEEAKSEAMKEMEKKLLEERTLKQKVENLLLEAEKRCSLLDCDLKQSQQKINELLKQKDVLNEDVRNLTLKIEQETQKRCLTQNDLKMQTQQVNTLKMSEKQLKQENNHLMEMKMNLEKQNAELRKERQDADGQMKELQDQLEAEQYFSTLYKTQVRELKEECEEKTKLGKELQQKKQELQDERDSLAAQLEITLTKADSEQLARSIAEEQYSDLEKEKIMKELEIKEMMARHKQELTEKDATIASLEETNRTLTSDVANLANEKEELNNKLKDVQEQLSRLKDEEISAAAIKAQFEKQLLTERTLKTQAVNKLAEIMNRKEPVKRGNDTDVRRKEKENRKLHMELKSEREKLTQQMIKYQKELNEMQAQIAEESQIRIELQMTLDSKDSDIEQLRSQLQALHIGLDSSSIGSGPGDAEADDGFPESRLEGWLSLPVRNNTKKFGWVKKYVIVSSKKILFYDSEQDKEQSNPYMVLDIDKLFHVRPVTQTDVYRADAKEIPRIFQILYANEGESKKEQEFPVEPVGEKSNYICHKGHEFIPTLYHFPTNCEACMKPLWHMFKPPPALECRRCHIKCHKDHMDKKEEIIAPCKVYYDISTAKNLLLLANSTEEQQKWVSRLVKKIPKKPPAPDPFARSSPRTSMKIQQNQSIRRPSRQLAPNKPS
Excerpt: as §1

The target of test [3] is T1, ROCK2. The following applies: different assay conditions; read-out: ROCK 2 IC50 (previously reported); cited from earlier work.

One may read the IC50 as the concentration that inhibits the measured activity by half. Regarding `O=C(NCc1ccccc1)Nc1ccc2[nH]ncc2c1` [Compound 12, 1-Benzyl-3-(1H-indazol-5-yl)urea], the values for the IC50 in test [1], in test [2] and in test [3] were 14 µM, 5.5 ± 3.1 µM and 0.26 µM, respectively.
